Laboratory results from BindingDB's records for doi:10.1016/s0960-894x(03)00298-1 (Cubist Pharmaceutical, 2003).

Key:
[1] = biological target: Methionyl-tRNA synthetase (Enterococcus faecalis); assay: Inhibitory activity against Enterococci faecalis methionyl-tRNA synthetase (EfMetRS)
[2] = biological target: Methionyl-tRNA synthetase (Staphylococcus aureus); assay: Inhibitory activity against Staphylococcus aureus methionyl-tRNA synthetase (SaMetRS)
[3] = biological target: Methionyl-tRNA synthetase (Staphylococcus aureus); assay: as above; remark: listed apart in the source
[4] = biological target: Methionyl-tRNA synthetase (Staphylococcus aureus); assay: as above; remark: listed apart in the source

IC50 [1] [µM]	IC50 [3] [µM]	Structure (SMILES)	other results
29.9	–	O=C(O)c1cc(-c2ccc(-c3ccc(Cl)cc3Cl)cc2)n(Cc2ccccc2)n1 [1-Benzyl-5-(2',4'-dichloro-biphenyl-4-yl)-1H-pyrazole-3-carboxylic acid]	IC50 [2]: 3.94 µM
–	–	O=C(O)Cn1nc(C(=O)O)cc1-c1ccc(-c2ccc(Cl)cc2Cl)cc1 [1-Carboxymethyl-5-(2',4'-dichloro-biphenyl-4-yl)-1H-pyrazole-3-carboxylic acid]	IC50 [2]: 3.42 µM
8.99	4.88	O=C(O)c1cc(-c2ccc(-c3ccc(Cl)cc3Cl)cc2)n(-c2ccc(Cl)cc2Cl)n1 [5-(2',4'-Dichloro-biphenyl-4-yl)-1-(2,4-dichloro-phenyl)-1H-pyrazole-3-carboxylic acid]	–
11.4	–	O=C(O)c1cc(-c2ccc(-c3ccc(Cl)cc3Cl)cc2)n(CCO)n1 [5-(2',4'-Dichloro-biphenyl-4-yl)-1-(2-hydroxy-ethyl)-1H-pyrazole-3-carboxylic acid]	IC50 [4]: 4.46 µM
17.8	–	COc1ccccc1-n1nc(C(=O)O)cc1-c1ccc(-c2ccc(Cl)cc2Cl)cc1 [5-(2',4'-Dichloro-biphenyl-4-yl)-1-(2-methoxy-phenyl)-1H-pyrazole-3-carboxylic acid]	IC50 [2]: 1.51 µM
–	–	COc1ccc(-n2nc(C(=O)O)cc2-c2ccc(-c3ccc(Cl)cc3Cl)cc2)cc1 [5-(2',4'-Dichloro-biphenyl-4-yl)-1-(4-methoxy-phenyl)-1H-pyrazole-3-carboxylic acid]	IC50 [2]: 10.5 µM
–	–	CCn1nc(C(=O)O)cc1-c1ccc(-c2ccc(Cl)cc2Cl)cc1 [5-(2',4'-Dichloro-biphenyl-4-yl)-1-ethyl-1H-pyrazole-3-carboxylic acid]	IC50 [2]: 1.02 µM
–	5.47	O=C(O)c1cc(-c2ccc(-c3ccc(Cl)cc3Cl)cc2)n(-c2ccccc2)n1 [5-(2',4'-Dichloro-biphenyl-4-yl)-1-phenyl-1H-pyrazole-3-carboxylic acid]	–
–	–	NC(=O)c1cc(-c2ccc(-c3ccc(Cl)cc3Cl)cc2)n(-c2ccccn2)n1 [5-(2',4'-Dichloro-biphenyl-4-yl)-1-pyridin-2-yl-1H-pyrazole-3-carboxylic acid amide]	IC50 [4]: 2.95 µM
1.93	–	O=C(O)c1cc(-c2ccc(-c3ccc(Cl)cc3Cl)cc2)n(-c2ccccn2)n1 [5-(2',4'-Dichloro-biphenyl-4-yl)-1-pyridin-2-yl-1H-pyrazole-3-carboxylic acid]	IC50 [4]: 0.63 µM
3.7	–	O=C(NCc1nnn[nH]1)c1cc(-c2ccc(-c3ccc(Cl)cc3Cl)cc2)n(-c2cccnc2)n1 [5-(2',4'-Dichloro-biphenyl-4-yl)-1-pyridin-3-yl-1H-pyrazole-3-carboxylic acid (1H-tetrazol-5-ylmethyl)-amide]	IC50 [4]: 0.13 µM
–	–	O=C(O)c1cc(-c2ccc(-c3ccc(Cl)cc3Cl)cc2)n(-c2cccnc2)n1 [5-(2',4'-Dichloro-biphenyl-4-yl)-1-pyridin-3-yl-1H-pyrazole-3-carboxylic acid]	IC50 [4]: 0.3 µM
–	0.66	O=C(O)c1cc(-c2ccc(-c3ccc(Cl)cc3Cl)cc2)n(Cc2cccnc2)n1 [5-(2',4'-Dichloro-biphenyl-4-yl)-1-pyridin-3-ylmethyl-1H-pyrazole-3-carboxylic acid]	–
–	0.5	O=C(O)c1cc(-c2ccc(-c3ccc(Cl)cc3Cl)cc2)n(Cc2ccncc2)n1 [5-(2',4'-Dichloro-biphenyl-4-yl)-1-pyridin-4-ylmethyl-1H-pyrazole-3-carboxylic acid]	–
–	2.68	O=C(O)c1cc(-c2ccc(-c3ccc(Cl)cc3Cl)cc2)nn1Cc1ccccn1 [5-(2',4'-Dichloro-biphenyl-4-yl)-2-pyridin-2-ylmethyl-2H-pyrazole-3-carboxylic acid]	–
–	17.2	O=C(O)c1cc(-c2ccc(-c3ccc(F)c(Cl)c3)cc2)n(-c2ccc(Cl)cc2Cl)n1 [5-(3'-Chloro-4'-fluoro-biphenyl-4-yl)-1-(2,4-dichloro-phenyl)-1H-pyrazole-3-carboxylic acid]	–
–	40.9	O=C(O)c1cc(-c2ccc(-c3ccccc3)cc2)n(-c2ccc(Cl)cc2Cl)n1 [5-Biphenyl-4-yl-1-(2,4-dichloro-phenyl)-1H-pyrazole-3-carboxylic acid]	–
